Source: publication PMC2199025 (The Journal of Experimental Medicine, 1997)
Ends that are not written are not given here.

Assays:
[1] = target: T1, transporters associated with processing (Mus musculus, UniProt P21958+P36371); assay: Transporter associated with processing; assay type: biochemical
T1 sequence (P21958 1-724): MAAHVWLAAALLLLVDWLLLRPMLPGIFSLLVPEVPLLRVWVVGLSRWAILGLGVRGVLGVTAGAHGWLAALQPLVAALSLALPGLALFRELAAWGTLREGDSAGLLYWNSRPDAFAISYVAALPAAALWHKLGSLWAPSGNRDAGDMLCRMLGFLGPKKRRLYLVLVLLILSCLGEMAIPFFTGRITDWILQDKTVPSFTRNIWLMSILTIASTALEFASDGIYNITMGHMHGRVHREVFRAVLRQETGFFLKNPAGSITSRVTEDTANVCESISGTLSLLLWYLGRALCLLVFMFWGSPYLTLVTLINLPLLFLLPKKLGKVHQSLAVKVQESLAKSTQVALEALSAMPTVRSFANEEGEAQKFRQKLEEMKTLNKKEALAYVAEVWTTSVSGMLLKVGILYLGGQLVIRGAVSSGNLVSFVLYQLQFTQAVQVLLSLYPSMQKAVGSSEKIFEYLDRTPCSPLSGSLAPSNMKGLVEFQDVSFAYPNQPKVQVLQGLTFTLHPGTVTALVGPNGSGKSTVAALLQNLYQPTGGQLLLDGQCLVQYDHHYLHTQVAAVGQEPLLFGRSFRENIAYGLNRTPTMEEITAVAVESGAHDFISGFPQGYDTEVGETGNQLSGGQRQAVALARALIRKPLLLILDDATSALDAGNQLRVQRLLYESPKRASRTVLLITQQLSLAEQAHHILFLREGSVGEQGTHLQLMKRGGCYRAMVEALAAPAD
T1 sequence (P36371 1-702): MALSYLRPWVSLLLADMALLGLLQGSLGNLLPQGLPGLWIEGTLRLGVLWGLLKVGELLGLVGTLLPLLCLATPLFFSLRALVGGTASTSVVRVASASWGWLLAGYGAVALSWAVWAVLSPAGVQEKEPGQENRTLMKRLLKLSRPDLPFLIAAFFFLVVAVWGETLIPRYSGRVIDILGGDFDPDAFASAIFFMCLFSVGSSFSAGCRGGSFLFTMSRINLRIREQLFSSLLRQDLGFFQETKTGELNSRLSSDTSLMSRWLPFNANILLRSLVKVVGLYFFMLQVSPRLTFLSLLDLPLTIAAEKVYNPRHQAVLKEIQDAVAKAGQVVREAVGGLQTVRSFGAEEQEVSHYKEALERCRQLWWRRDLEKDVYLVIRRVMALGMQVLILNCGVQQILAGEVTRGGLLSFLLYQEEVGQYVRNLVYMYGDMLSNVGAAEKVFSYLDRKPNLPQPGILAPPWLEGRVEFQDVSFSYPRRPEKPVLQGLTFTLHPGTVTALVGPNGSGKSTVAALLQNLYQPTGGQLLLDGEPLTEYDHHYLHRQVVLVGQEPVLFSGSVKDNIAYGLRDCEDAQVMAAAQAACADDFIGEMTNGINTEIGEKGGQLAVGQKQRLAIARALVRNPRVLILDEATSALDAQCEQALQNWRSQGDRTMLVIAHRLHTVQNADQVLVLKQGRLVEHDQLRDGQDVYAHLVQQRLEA

H-2K^b = H-2K^b (Mus musculus, UniProt P01901); assay: Peptide competition cytotoxicity assay; assay type: cell-based, murine

Sequence | IC50 [1] [µM] | IC50 (H-2K^b) [µM]
YSPPLNKLF | > 92.7 | 0.464
LNKLFCQL | 7.16 | 2.04
TTIHYKYM | 5.68 | 
TYSPPLNKL | 5.81 | 13.6
AIYKKSQHM | 4.07 | 0.271
VMCTYSPPL | 2.47 | 
